Like-named read-outs stand apart in the source and are kept apart here.
What was measured:
ATX [1] = details: cited from earlier work
ATX [2] = molecular target: T1, ATX (Rattus norvegicus, UniProt Q64610); experiment: Choline oxidase-coupled choline-release assay of LPC hydrolysis by ATX
ATX tunnel = test system: ATX tunnel; set-up: method as in PMID 27075612; details: partial non-competitive modulators; cited from earlier work
BJeH fibroblasts = experiment: AKT and ERK phosphorylation by western blotting; type: cell-based; details: Homo sapiens, 0.25 h, 15 min
Method: 100,000 BJeH cells were seeded in 12-well tissue culture plates and allowed to grow for 24 h in DMEM (GIBCO, Life Technologies) containing 10% FCS (Thermo Scientific) and 100 U mL^–1 streptomycin/penicillin (GIBCO, Life Technologies). Next, they were washed twice with phosphate-buffered saline (PBS) and serum-starved O/N. ATX 20 nM was incubated with inhibitors for 30 min in a serum-free medium containing 0.05% (w/v) fatty acid-free BSA (total volume 1 mL). The medium from the 12-well plates was removed and replaced with 1 mL of the ATX–inhibitor mixture. Cells were stimulated for 15 min, the medium was removed, and plates were immediately frozen on dry ice and stored at −80 °C. For western blotting, cells were washed with cold PBS; lysed in RIPA buffer; supplemented with protease inhibitors (Pierce), 20 mM NaF and 1 mM orthovanadate; and spun down. The protein concentration was measured using a BCA protein assay kit (Pierce), and LDS sample buffer (NuPAGE, Invitrogen) and 1 mM dithiothreitol were added to the lysate. 20 μg of the total protein was loaded on sodium dodecyl sulfate–polyacrylamide gel electrophoresis pre-cast gradient gels (4–12% Nu-Page Bis-Tris, Invitrogen), followed by transfer to a nitrocellulose membrane. Non-specific protein binding was blocked by 5% BSA in PBS-Tween (0.1%); the primary antibodies were phospho-Akt (Ser473), catalogue number: D93, dilution: 1:1,000; phospho-ERK1/2 (Thr202/Tyr204), catalogue number: D13.14.4E, dilution: 1:2,000, from Cell Signaling Technology. They were incubated O/N at 4 °C in PBS–Tween with 5% BSA, containing 0.1% NaN3. Blots were then incubated for 1 h at room temperature with monoclonal anti-β-actin antibody, clone AC-15, dilution: 1:10,000, from Sigma, which was dissolved in PBS–Tween with 5% skimmed milk containing 0.1% NaN3. HRP-conjugated secondary antibodies [goat anti-mouse (Bio-Rad), catalogue number: 1721011; goat anti-rabbit (Pierce), catalogue number: 1858415] were incubated for 1 h at room temperature in PBS–Tween with 2.5% BSA and developed using an ECL Western blot reagent.

MDA-MB-231 cells = experiment: Boyden chamber cell migration assay; type: cell-based; details: migration for 4 h; for EC50: 20 nM ATX, 1 μM 18:1 LPC
Method: Migration of MDA-MB-231 cells was performed using 48-well chemotaxis chambers (Neuro Probe, Inc.) equipped with […] pore polycarbonate membranes, which were coated with fibronectin (10 μg/mL) (F1141, Sigma-Aldrich). Cells (2 × 10^6 cells/mL) were added to the upper chamber. 0.05% fatty acid-free BSA was used as a lysophospholipid carrier. Cells were allowed to migrate for 4 h at 37 °C in humidified air containing 5% CO2. Migrated cells were fixed in Diff-Quik Fix and stained using Diff-Quik II. Migration was quantified by color intensity measurements using Photoshop software.

ATX [3] = molecular target: T1, ATX; experiment: Mechanistic studies: mode of inhibition and Ki from LPC titration; type: biochemical; set-up: made in house
Method: The biochemical studies of ATX lysoPLD activity were performed with ATX. Activity was measured by a coupled reaction with 1 U mL^–1 choline oxidase and 2 U mL^–1 horseradish peroxidase (HRP) and 2 mM homovanillic acid (HVA) (all from Sigma-Aldrich). For the assays, 14:0, 16:0, 18:1, and 20:0 LPC (Avanti Polar Lipids Inc.) were incubated with 20 nM ATX, reaching a final volume of 100 μL of the buffer, which contained 50 mM Tris, 0.01%, 50 mM CaCl2, Triton X-100, pH 7.4. Steady-state choline release was measured at 37 °C by HVA fluorescence at λex/λem = 320/460 nm in Corning 96- or 384-well OptiPlate (Sigma-Aldrich) and with a Pherastar plate reader (BMG Labtech). […] The resulting fluorescence intensity signal over time was used to model all inhibitor concentrations simultaneously using the following formula, where vmax and vmin were fitted for the minimum and maximum relative velocities, respectively, and ci corresponds to the inhibitor concentration for each assay[20] [drawing 1] 1
To statistically determine the chance of each type of inhibition, we calculated the α value in the partial mixed inhibition model (eq 5), where Part defines the partiality of the inhibition, and α > 1 or α = 1 correspond to competitive and non-competitive inhibition modes, respectively. Last, we utilized Akaike’s Information Criterion[42] to assess the significance of the analysis [drawing 5] 5

ATX [4] = molecular target: T1, ATX; experiment: Competition with LPA allostery (LPA-mediated activation of ATX); type: biochemical; set-up: made in house; details: inhibitor at concentrations close to or lower than IC50; 150 μM 18:1 LPC, 18:1 LPA, 20 nM ATX
Method: The activation assays using LPA were performed in a similar way to those done for the inhibitors. In this case, LPA was dissolved in ethanol/H20 (1:1) and 0.01% TX-100 and was added to the reaction buffer. The presence of ethanol was taken into account, and controls in the absence of ATX and/or LPC were employed to correct the kinetic data. ATX was incubated for 30 min with different concentrations of inhibitors and subsequently added to the reaction buffer containing 150 μM 18:1 LPC and different starting concentrations of 18:1 LPA. The slopes were calculated from at least 60 min after the addition of ATX. The percentage of LPA-driven activation was normalized to ATX in the absence of LPA and inhibitors, which represented 100% activity. Last, the activation constant or AC50 was obtained from the following equation [drawing 2] 2

[5] = test system: LPA1-HA-expressing HeLa-Flp-In cells; experiment: Confocal microscopy for LPA1 internalization; type: cell-based, Human; details: 1 μM 18:1 LPC, 20 nM ATX, 15 min
Method: Human LPA1 cDNA was amplified by PCR to remove its stop codon and add the restriction sites for BamHI and XhoI, after which it was subcloned in an in-house produced pDNA5.1-HA vector. 0.2 μg of the resulting vector and 1.8 μg of pOG44 Flp-Recombinase Expression Vector (Invitrogen) were incubated with 6 μL of Fugene6 (Invitrogen) in 200 μL of OptiMEM (Gibco) for 30 min, after which the mix was added to previously produced HeLa-Flp-In cells.[43] Their medium was refreshed 24 h later, and selection with 1 μg/mL puromycin was started and maintained with resistant cells.
Serum-starved LPA1-HA-expressing HeLa-Flp-In cells cultured on 24 mm (#1,5) were treated with 1 μM LPC and 20 nM ATX in the presence or absence of 22 or 23 for 15 min in DMEM containing 0.05% fatty acid-free BSA. Subsequently, coverslips were washed and fixed with 4% PFA, permeabilized with 0.1% Triton X-100, and blocked with 2% BSA for 1 h. Incubation with anti-HA antibody (3F10 from Roche Diagnostics; 1:200) was done for 1 h, followed by incubation with donkey anti-rat Alexa Fluor 488-conjugated antibody (A-21208 from Invitrogen; 1:200) for 1 h at room temperature. For confocal microscopy, cells were washed with PBS, mounted with Immnuno-MountTM (Thermo Scientific), visualized on a LEICA TCS-SP5 confocal microscope (63× objective), and analyzed using ImageJ software.

[6] = 14:0 LPC, 150 μM LPC, 20 nM ATX
[7] = 16:0 LPC, 150 μM LPC, 20 nM ATX
[8] = 18:1 LPC, 150 μM LPC, 20 nM ATX
[9] = LPC hydrolysis assay, 20 nM ATX

For “2-[[2-Ethyl-6-[4-[2-(3-hydroxyazetidin-1-yl)-2-oxoethyl]piperazin-1-yl]-8-methylimidazo[1,2-a]pyridin-3-yl]methylamino]-4-(4-fluorophenyl)thiazole-5-carbonitrile [Compound 3]”, the IC50 (ATX [1]) is given as 131 nM.

In the case of `C[C@H](CCC(=O)O)[C@H]1CC[C@H]2[C@@H]3[C@@H](O)C[C@@H]4C[C@H](O)CC[C@]4(C)[C@H]3CC[C@]12C` [Compound 9, ursodeoxycholic acid, reference compound], the IC50 (ATX [2]) is given as 9000 nM and the “affinity for the ATX tunnel” value (ATX tunnel) is given as “micromolar”.

`C[C@H](CCC(=O)N1CCC(Oc2ccc(B(O)O)cc2)CC1)[C@H]1CC[C@H]2C3[C@@H](O)C[C@@H]4C[C@H](O)CC[C@]4(C)[C@H]3CC[C@]12C` (stereo partly drawn) [Compound 23] gave an EC50 (BJeH fibroblasts; BJeH cells, 20 nM ATX, 1 μM 18:1 LPC, read-out: EC50 (P-AKT and P-ERK levels)) of roughly 60 nM, an Emax (BJeH fibroblasts; BJeH, compared to uninhibited ATX incubated with LPC, read-out: reduction of maximal effective cell response (P-AKT and P-ERK)) of roughly 60% and an EC50 (MDA-MB-231 cells; Homo sapiens, MDA-MB-231, 4 h) of 186 ± 99 nM. For the same compound, the EC50 (MDA-MB-231 cells) was roughly 200 nM, the “reduction of cell migration” value (MDA-MB-231 cells; ATX + LPC) was roughly 50% and the “percentage of competitive versus non-competitive inhibition” value (ATX [3]; Akaike's informative criteria) was 99%. The mode of inhibition (ATX [3]; LPC hydrolysis) was “competitive”, the Ki (ATX [3]; LPC titration at increasing inhibitor concentrations, Michaelis-Menten nonlinear regression) was 9 ± 1 nM and the “α (partial mixed inhibition model)” value (ATX [3]; α > 1 competitive, α = 1 non-competitive) was 8.5. The “LPA-mediated activation of ATX activity” value (ATX [4]) was “dose-dependent decrease”, the IC50 (ATX [2]; [6]) was 54 nM and the “Residual Activity (%)” value (ATX [2]; [6]) was 0%. The IC50 (ATX [2]; [7]) was 34 nM, the “Residual Activity (%)” value (ATX [2]; [7]) was 12% and the IC50 (ATX [2]; [8]) was 29 nM. For the same compound, the “Residual Activity (%)” value (ATX [2]; [8]) was 7%, the IC50 (ATX [2]; 20:0 LPC, 150 μM LPC, 20 nM ATX) was 33 nM and the “Residual Activity (%)” value (ATX [2]; 20:0 LPC, 150 μM LPC, 20 nM ATX, % of catalytic rate of inhibitor-free control) was 51%. For the same compound, the IC50 (ATX [2]; [9]) was 30 nM, the “Residual Activity (%)” value (ATX [2]; [9]) was 0% and the “decrease of LPA1 internalization” value [5] was “approximately 75%”.

— publication PMC9059126, “Structure-Based Design of a Novel Class of Autotaxin Inhibitors Based on Endogenous Allosteric Modulators” (Journal of Medicinal Chemistry, 2022)
